Data published in patent US7456165B2, “HCV NS5B inhibitors” (Bristol-Myers Squibb Company, priority 2006, dated 2008).

Tests used:
HCV replicon cells = experiment: HCV replicon FRET assay; format: cell-based; settings: Hepatitis C virus
From the text: FRET Assay Preparation. To perform the HCV FRET screening assay, 96-well cell culture plates were used. The FRET peptide (Anaspec, Inc.) (Taliani et al., Anal Biochem. 1996, 240, 60-67) contains a fluorescence donor, EDANS, near one end of the peptide and an acceptor, DABCYL, near the other end. The fluorescence of the peptide is quenched by […] resonance energy transfer (RET) between the donor and the acceptor, but as the NS3 protease cleaves the peptide the products are released from RET quenching and the fluorescence of the donor becomes apparent. The assay reagent was made as follows: 5× cell Luciferase cell culture lysis reagent from Promega (#E153A) diluted to 1× with dH2O, NaCl added to 150 mM final, the FRET peptide diluted to 20 μM final from a 2 mM stock.
To prepare plates, HCV replicon cells, with or without a Renilla luciferase reporter gene, were trypsinized and placed into each well of a 96-well plate with titrated test compounds added in columns 3 through 12; columns 1 and 2 contained a control compound (HCV protease inhibitor), and the bottom row contained cells without compound. The plates were then placed in a CO2 incubator at 37° C.
Assays. Subsequent to addition of the test compounds described above (FRET Assay Preparation), at various times the plate was removed and Alamar blue solution (Trek Diagnostics, #00-100) was added per well as a measure of cellular toxicity. After reading in a Cytoflour 4000 instrument (PE Biosystems), plates were rinsed with PBS and then used for FRET assay by the addition of 30 ul of the FRET peptide assay reagent described above (FRET Assay Preparation) per well. The plate was then placed into the Cytoflour 4000 instrument which had been set to 340 excite/490 emission, automatic mode for 20 cycles and the plate read in a kinetic mode. Typically, the signal to noise using an endpoint analysis after the reads was at least three-fold. Alternatively, after Alamar blue reading, plates were rinsed with PBS, 50 ul of DMEM (high glucose) without phenol red was added and plates were then used for luciferase assay using the Promega Dual-Glo Luciferase Assay System.
Compound analysis was determined by quantification of the relative HCV replicon inhibition and the relative cytotoxicity values. To calculate cytoxicity values, the average Alamar Blue fluorescence signals from the control wells were set as 100% non-toxic. The individual signals in each of the compound test wells were then divided by the average control signal and multiplied by 100% to determine […]. To calculate the HCV replicon inhibition values, an average background value was obtained from the two wells containing the highest amount of HCV protease inhibitor at the end of the assay period. These numbers were similar to those obtained from naïve Huh-7 cells.
The background numbers were then subtracted from the average signal obtained from the control wells and this number was used as 100% activity. The individual signals in each of the compound test wells were then divided by the averaged control values after background subtraction and multiplied by 100% to determine percent activity. EC50 values for a protease inhibitor titration were calculated as the concentration which caused a 50% reduction in FRET or luciferase activity. The two numbers generated for the compound plate, percent cytoxicity and percent activity were used to determine compounds of interest for further analysis.

HCV NS5B = biological target: T1, HCV NS5B (Hepatitis C virus genotype 1b, UniProt Q9WMX2); experiment: HCV NS5B RdRp enzyme assay (preincubation protocol); format: biochemical; settings: HCV NS5B RdRp genotype 1b
T1 construct: The protein was expressed with an 18 amino acid C-terminal truncation to enhance the solubility; made in house; host or cells: E. coli BL21(DE3)
Procedure: HCV NS5B RdRp cloning, expression, and purification. The cDNA encoding the NS5B protein of HCV, genotype 1b, was cloned into the pET21a expression vector. The protein was expressed with an 18 amino acid C-terminal truncation to enhance the solubility. The E. coli competent cell line BL21(DE3) was used for expression of the protein. Cultures were grown at 37° C. for ˜4 hours until the cultures reached an optical density of 2.0 at 600 nm. The cultures were cooled to 20° C. and induced with 1 mM IPTG. Fresh ampicillin was added to a final concentration of 50 μg/ml and the cells were grown overnight at 20° C.
Cell pellets (3 L) were lysed for purification to yield 15-24 mgs of purified NS5B. The lysis buffer consisted of 20 mM Tris-HCl, pH 7.4, 500 mM NaCl, 0.5% triton X-100, 1 mM DTT, 1 mM EDTA, 20% glycerol, 0.5 mg/ml lysozyme, 10 mM MgCl2, 15 ug/ml deoxyribonuclease I, and Complete TM protease inhibitor tablets (Roche). After addition of the lysis buffer, frozen cell pellets were resuspended using a tissue homogenizer. To reduce the viscosity of the sample, aliquots of the lysate were sonicated on ice using a microtip attached to a Branson sonicator. The sonicated lysate was centrifuged at 100,000×g for 1 hr at 4° C. and filtered through a 0.2 μm filter unit (Corning).
The protein was purified using three sequential chromatography steps: Heparin sepharose CL-6B, polyU sepharose 4B, and Hitrap SP sepharose (Pharmacia). The chromatography buffers were identical to the lysis buffer but contained no lysozyme, deoxyribonuclease I, MgCl2 or protease inhibitor and the NaCl concentration of the buffer was adjusted according to the requirements for charging the protein onto the column. Each column was eluted with a NaCl gradient which varied in length from 5-50 column volumes depending on the column type. After the final chromatography step, the resulting purity of the enzyme is >90% based on SDS-PAGE analysis. The enzyme was aliquoted and stored at −80° C.
Standard HCV NS5B RdRp enzyme assay. HCV RdRp genotype 1b assays were run in a final volume of 60 μl in 96 well plates (Costar 3912 H. The assay buffer is composed of 20 mM Hepes, pH 7.5, 2.5 mM KCl, 2.5 mM MgCl2, 1 mM DTT, 1.6 U RNAse inhibitor (Promega N2515), 0.1 mg/ml BSA (Promega R3961), and 2% glycerol. All compounds were serially diluted (3-fold) in DMSO and diluted further in water such that the final concentration of DMSO in the assay was 2%. HCV RdRp genotype 1b enzyme was used at a final concentration of 28 nM. A polyA template was used at 6 nM, and a biotinylated oligo-dT12 primer was used at 180 nM final concentration. Template was obtained commercially (Amersham 27-4110). Biotinylated primer was prepared by Sigma Genosys. 3H-UTP was used at 0.6 μCi (0.29 μM total UTP). Reactions were initiated by the addition of enzyme, incubated at 30° C. for 60 min, and stopped by adding 25 μl of 50 mM EDTA containing SPA beads (4 μg/μl, Amersham RPNQ 0007 H. Plates were read on a Packard Top Count NXT after >1 hr incubation at room temperature.
Modified HCV NS5B RdRp enzyme assay. A modified enzyme assay was performed essentially as described for the standard enzyme assay except for the following: The biotinylated oligo dT12 primer was precaptured on streptavidin-coated SPA beads by mixing primer and beads in assay buffer and incubating at room temperature for one hour. Unbound primer was removed after centrifugation. The primer-bound beads were resuspended in 20 mM Hepes buffer, pH 7.5 and used in the assay at final concentrations of 20 nM primer and 0.67 μg/μl beads. Order of addition in the assay: enzyme (14 nM) was added to diluted compound followed by the addition of a mixture of template (0.2 nM), 3H-UTP (0.6 μCi, 0.29 μM), and primer-bound beads, to initiate the reaction; concentrations given are final. Reactions were allowed to proceed for 4 hours at 30° C.
IC50 values for compounds were determined using seven different [I]. […]

T1 sequence (Q9WMX2 2420-2992): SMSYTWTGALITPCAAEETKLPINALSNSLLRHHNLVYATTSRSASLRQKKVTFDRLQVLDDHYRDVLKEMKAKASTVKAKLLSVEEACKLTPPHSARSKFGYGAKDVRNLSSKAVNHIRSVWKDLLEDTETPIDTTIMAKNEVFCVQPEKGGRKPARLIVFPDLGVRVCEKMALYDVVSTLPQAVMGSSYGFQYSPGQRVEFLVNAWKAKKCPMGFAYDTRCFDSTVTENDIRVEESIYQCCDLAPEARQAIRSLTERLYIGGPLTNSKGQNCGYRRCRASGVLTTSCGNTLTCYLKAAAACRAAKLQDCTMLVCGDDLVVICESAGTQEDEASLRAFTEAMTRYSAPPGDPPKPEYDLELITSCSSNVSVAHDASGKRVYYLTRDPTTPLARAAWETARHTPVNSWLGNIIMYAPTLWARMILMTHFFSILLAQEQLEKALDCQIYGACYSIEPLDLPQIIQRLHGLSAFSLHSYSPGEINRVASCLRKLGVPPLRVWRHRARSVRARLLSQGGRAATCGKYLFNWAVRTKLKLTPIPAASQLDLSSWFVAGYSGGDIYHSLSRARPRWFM

SMILES	EC50 (HCV replicon cells) [nM]	IC50 (HCV NS5B) [nM]
COc1ccc2c(c1)CC(c1ncc(CCC(=O)N3CCOCC3)o1)Cn1c-2c(C2CCCCC2)c2ccc(C(=O)O)cc21 (racemic) [Example 50, 13-Cyclohexyl-3-methoxy-6-(5-(3-(4-morpholinyl)-3-oxopropyl)-1,3-oxazol-2-yl)-6,7-dihydro-5H-indolo[2,1-a][2]benzazepine-10-carboxylic acid]	1 to 500	1 to 500
COc1ccc2c(c1)CC(c1ncc(CCC(=O)N3CCOCC3)o1)Cn1c-2c(C2CCCCC2)c2ccc(C(=O)NS(=O)(=O)N(C)C)cc21 (single isomer, unassigned) [Example 53, 13-Cyclohexyl-N-((dimethylamino)sulfonyl)-3-methoxy-6-(5-(3-(4-morpholinyl)-3-oxopropyl)-1,3-oxazol-2-yl)-6,7-dihydro-5H-indolo[2,1-a][2]benzazepine-10-carboxamide]	1 to 500	1 to 500
O=C(O)c1ccc2c(C3CCCCC3)c3n(c2c1)C=C(c1nnn(CC2CC2)n1)Cc1ccccc1-3 [Example 7, 13-cyclohexyl-6-[2-(cyclopropylmethyl)-2H-tetrazol-5-yl]-5H-indolo[2,1-a][2]benzazepine-10-carboxylic acid]	> 500	> 500
O=C(O)c1ccc2c(C3CCCCC3)c3n(c2c1)CC(c1nnnn1CC1CCCO1)=Cc1ccccc1-3 (stereo not shown) [Example 10, 13-cyclohexyl-6-[1-[(tetrahydro-2-furanyl)methyl]-1H-tetrazol-5-yl]-7H-indolo[2,1-a][2]benzazepine-10-carboxylic acid]	> 500	1 to 500
O=C(O)c1ccc2c(C3CCCCC3)c3n(c2c1)CC(c1n[nH]c(=O)o1)=Cc1ccccc1-3 [Example 19, 13-cyclohexyl-6-(4,5-dihydro-5-oxo-1,3,4-oxadiazol-2-yl)-7H-indolo[2,1-a][2]benzazepine-10-carboxylic acid]	> 500	1 to 500
Nc1nnc(C2=Cc3ccccc3-c3c(C4CCCCC4)c4ccc(C(=O)O)cc4n3C2)o1 [Example 30, 6-(5-amino-1,3,4-oxadiazol-2-yl)-13-cyclohexyl-7H-indolo[2,1-a][2]benzazepine-10-carboxylic acid]	> 500	> 500
COc1ccc2c(c1)CC(c1ncco1)Cn1c-2c(C2CCCCC2)c2ccc(C(=O)NS(=O)(=O)N(C)C)cc21 (stereo not shown) [Example 58, 13-Cyclohexyl-N-((dimethylamino)sulfonyl)-3-methoxy-6-(1,3-oxazol-2-yl)-6,7-dihydro-5H-indolo[2,1-a][2]benzazepine-10-carboxamide]	1 to 500	1 to 500
O=C(O)c1ccc2c(C3CCCCC3)c3n(c2c1)CC(c1nnc(CC2CCOCC2)o1)=Cc1ccccc1-3 [Example 44, 13-cyclohexyl-6-[5-[(tetrahydro-2H-pyran-4-yl)methyl]-1,3,4-oxadiazol-2-yl]-7H-indolo[2,1-a][2]benzazepine-10-carboxylic acid]	> 500	1 to 500
CN(C)S(=O)(=O)NC(=O)c1ccc2c(C3CCCCC3)c3n(c2c1)CC(c1nnn(CC2CCOCC2)n1)=Cc1ccccc1-3 [Example 15, 13-cyclohexyl-N-[(dimethylamino)sulfonyl]-6-[2-[(tetrahydro-2H-pyran-4-yl)methyl]-2H-tetrazol-5-yl]-7H-indolo[2,1-a][2]benzazepine-10-carboxamide]	> 500	1 to 500
COc1ccc2c(c1)C=C(c1ncco1)Cn1c-2c(C2CCCCC2)c2ccc(C(=O)NS(=O)(=O)N(C)C)cc21 [Example 57, 13-Cyclohexyl-N-((dimethylamino)sulfonyl)-3-methoxy-6-(1,3-oxazol-2-yl)-7H-indolo[2,1-a][2]benzazepine-10-carboxamide]	1 to 500	1 to 500
O=C(O)c1ccc2c(C3CCCCC3)c3n(c2c1)CC(c1nnnn1CC1CCOCC1)=Cc1ccccc1-3 [Example 13, 13-cyclohexyl-6-[1-[(tetrahydro-2H-pyran-4-yl)methyl]-1H-tetrazol-5-yl]-7H-indolo[2,1-a][2]benzazepine-10-carboxylic acid]	> 500	1 to 500
CN(C)S(=O)(=O)NC(=O)c1ccc2c(C3CCCCC3)c3n(c2c1)CC(c1ncc(CCC(=O)N2CCOCC2)o1)=Cc1ccccc1-3 [Example 37, 13-cyclohexyl-N-[(dimethylamino)sulfonyl]-6-[5-[3-(4-morpholinyl)-3-oxopropyl]-2-oxazolyl-]7H-indolo[2,1-a][2]benzazepine-10-carboxamide]	1 to 500	1 to 500
O=C(O)c1ccc2c(C3CCCCC3)c3n(c2c1)CC(c1nn(CC2CCOCC2)c(=O)o1)=Cc1ccccc1-3 [Example 21, 13-cyclohexyl-6-[4,5-dihydro-5-oxo-4-[(tetrahydro-2H-pyran-4-yl)methyl]-1,3,4-oxadiazol-2-yl]-7H-indolo[2,1-a][2]benzazepine-10-carboxylic acid]	> 500	1 to 500
O=C(O)c1ccc2c(C3CCCCC3)c3n(c2c1)CC(c1n[nH]c(CC2CCOCC2)n1)=Cc1ccccc1-3 [Example 22, 13-cyclohexyl-6-[3-[(tetrahydro-2H-pyran-4-yl)methyl]-1H-1,2,4-triazol-5-yl]-7H-indolo[2,1-a][2]benzazepine-10-carboxylic acid]	> 500	1 to 500
